From patent publication US7678941B2, “Polyoxyalkylene ammonium salts and their use as antistatic agents” (3M Innovative Properties Company, priority 2001, dated 2010)

Experiments:
[1] = Surface Resistivity Test (ASTM D-257) of topically coated polyester film; conditions: 72° F., 27% relative humidity; for Surface Resistivity 1% MEK solution: 1% solution in MEK coated on polyester film; for Surface Resistivity 6% MEK: 6% solution in MEK coated on polyester film
Method: Test Method IV—Surface Resistivity Test
The Surface Resistivity Test was conducted according to the procedure of ASTM Standard D-257; “D.C. Resistance or Conductance of Insulating Materials”. The surface resistivity was measured under these conditions using an ETS Model 872 Wide Range Resistance Meter fitted with a Model 803B probe (Electro-Tech Systems, Inc., Glenside, Pa.). This apparatus applies an external voltage of 10 Volts across two concentric ring electrodes and provides surface resistivity readings in ohm/cm^2. The room temperature was 72° F. and there was a 27% relative humidity.
Topically Coated Polyester Film.
A 1% and 6% solution of the antistatic agent to be tested in methylethyl ketone (MEK) was prepared. About 2 mL of solution was pipetted onto the top of a sheet of polyester film with 25.5 cm by 17.8 cm dimensions. The solution was then drawn over the film using a #12 wire wound bar. The resulting coating was dried in a forced air oven for 2.5 minutes at 65° C.

[2] = Thermal gravimetric analysis (TGA); format: physicochemical; conditions: for Wt. % remaining @ given Temp: nitrogen, 10° C. per minute ramp; for weight loss compared with chloride salt of the same cation: processing range of 200-320° C.
Method: Test Methods Test Method I—Thermal Gravimetric Analysis (TGA)
The thermal decomposition of each salt was determined by thermal gravimetric analysis (TGA) under an inert nitrogen atmosphere using a 10° C. per minute temperature ramp using a PerkinElmer Thermogravimetric Analyzer TGA 7, manufactured by PerkinElmer Instruments of Norwalk, Conn.
Table 3 provides thermal gravimetric data for antistats of the present invention and comparative antistats.

[3] = Bioelimination study, amount of fluorochemical sulfonate in male rat liver tissue; format: in vivo; conditions: for Amount of Sulfonate, Day 1N / Amount of Sulfonate, Day 1 / Amount of Sulfonate, Day 14N / Amount of Sulfonate, Day 14 / Amount of Sulfonate, Day 28N / Amount of Sulfonate, Day 28: male rat liver; for Amount of Sulfonate, Day 1N / Amount of Sulfonate, Day 14N / Amount of Sulfonate, Day 28N: normalized to a feeding level of 3 mg/kg body weight per day; for Amount of Sulfonate, Day 1 / Amount of Sulfonate, Day 14 / Amount of Sulfonate, Day 28: potassium salts dosed at 30 (C4), 10 (C6), 3 (C8) mg/kg body weight/day; for elimination from the body: tested in the form of its potassium salt
Method: Bioelimination Study with Perfluorobutanesulfonate
Comparative study of potassium perfluorobutanesulfonate (using a dose level of 30 mg/kg body weight/day), potassium perfluorohexanesulfonate (using a dose level of 10 mg/kg body weight/day), and potassium perfluorooctanesulfonate (using a dose level of 3 mg/kg body weight/day).

[4] = Surface tension determination (Kruss K12 Tensiometer, Wilhelmy plate); format: physicochemical
Method: Test Method III—Surface Tension Determination
All surface tensions were determined using a Kruss K12 Tensiometer. It was integrated with an automatic dosimat and a computer, using a software package for dynamic contact angle (K121). The program was run using a Wilhelmy platinum plate (PL12) and glass sample vessel (GL7). All parts referenced above including instrument and computer can be purchased directly from Kruss USA, Charlotte, N.C.

[5] = at 28 days following completion of feeding, after normalization to the same feeding levels
[6] = liver amount at 28 days following completion of feeding
[7] = liver amount immediately following completion of feeding

## [(+)H3NCH(CH3)CH2[OCH(CH3)CH2]a[OCH2CH2]8.5[OCH2CH(CH3)]CNH3(+)][C8F17SO3^−]2 (a+c=2.5) [Comparative Antistat 1]
[1]
  Surface Resistivity 1% MEK solution: 1.6 × 10^11 Ohm/cm^2
  Surface Resistivity 6% MEK: 1.5 × 10^11 Ohm/cm^2

## [C12H25N^+(CH3)(CH2CH2O)mH(CH2CH2O)nH][^−N(SO2CF3)2]; (m+n=15) [Antistat 4]
[2]; 200° C.
  Wt. % remaining @ given Temp: 99.7 Wt. %
[2]; 240° C.
  Wt. % remaining @ given Temp: 99.5 Wt. %
[2]; 280° C.
  Wt. % remaining @ given Temp: 99.3 Wt. %
[2]; 320° C.
  Wt. % remaining @ given Temp: 98.6 Wt. %
[2]
  weight loss compared with chloride salt of the same cation: less weight loss than ETHOQUAD™ C/25

## O=S(=O)([O-])C(F)(F)C(F)(F)C(F)(F)C(F)(F)C(F)(F)C(F)(F)F.[K+] [C6F13SO3^−, potassium perfluorohexanesulfonate]
[3]; [5]
  factor lower than C8F17SO3^−: 21.5
[3]; [6]
  factor lower than C8F17SO3^−: 6.5
[3]; [7]
  factor lower than C8F17SO3^−: 1.3
[3]
  Amount of Sulfonate, Day 1N: 98 ppm
  Amount of Sulfonate, Day 1: 327 ± 52 ppm
  Amount of Sulfonate, Day 14N: 19 ppm
  Amount of Sulfonate, Day 14: 61.9 ± 11.7 ppm
  Amount of Sulfonate, Day 28N: 11 ppm
  Amount of Sulfonate, Day 28: 36.3 ± 7.4 ppm

## O=S(=O)([O-])C(F)(F)C(F)(F)C(F)(F)C(F)(F)F.[K+] [Antistat C4F9SO3K, Potassium perfluorobutane sulfonate]
[4]; 10 ppm in water
  surface energy: 70 dyne/cm
[4]; 100 ppm in water
  surface energy: 67.5 dyne/cm
[4]; 1000 ppm in water
  surface energy: 53 dyne/cm
[3]; [5]
  factor lower than C6F13SO3^−: 4400
[3]; [6]
  factor lower than C6F13SO3^−: > 1400
[3]; [7]
  factor lower than C6F13SO3^−: > 100
[3]
  Amount of Sulfonate, Day 1N: 0.31 ppm
  Amount of Sulfonate, Day 1: 3.09 ± 1.58 ppm
  Amount of Sulfonate, Day 14N: 0.0126 ppm
  Amount of Sulfonate, Day 14: 0.126 ± 0.084 ppm
  Amount of Sulfonate, Day 28N: 0.0025 ppm
  Amount of Sulfonate, Day 28: 0.025 ± 0.015 ppm
[3]; listed as C4F9SO3^−
  elimination from the body: unexpectedly fast and effective elimination
[3]; listed as perfluorobutanesulfonate
  elimination from the body: eliminates from the body more rapidly than perfluorohexanesulfonate and much more rapidly than perfluorooctanesulfonate

## CH3CH2C[CH2(OCH2CH(CH3))xNH3^+][CH2(OCH2CH(CH3))yNH3^+][CH2(OCH2CH(CH3))zNH3^+][—N(SO2C4F9)2]3 where x+y+z˜5.3; JEFFAMINE™ T-403 DBI salt [Antistat 2]
[1]
  Surface Resistivity 1% MEK solution: 2.4 × 10^10 Ohm/cm^2
  Surface Resistivity 6% MEK: 1.5 × 10^11 Ohm/cm^2

## [C18H37N^+(CH3)(CH2CH2O)mH(CH2CH2O)nH][^−N(SO2CF3)2]; (m+n=15) [Antistat 5]
[2]; 200° C.
  Wt. % remaining @ given Temp: 99.6 Wt. %
[2]; 240° C.
  Wt. % remaining @ given Temp: 99.2 Wt. %
[2]; 280° C.
  Wt. % remaining @ given Temp: 98.9 Wt. %
[2]; 320° C.
  Wt. % remaining @ given Temp: 98.0 Wt. %
[2]
  weight loss compared with chloride salt of the same cation: less weight loss than ETHOQUAD™ 18/25

## [CH3(OCH2CH2)19(OCH2CHCH3)2NH3^+][^−O3SCF3] [Comparative Antistat 2]
[1]
  Surface Resistivity 1% MEK solution: 1.5 × 10^12 Ohm/cm^2
  Surface Resistivity 6% MEK: 1.6 × 10^12 Ohm/cm^2

## CH3CH2C[CH2(OCH2CH(CH3))xNH3^+][CH2(OCH2CH(CH3))yNH^3^+][CH2(OCH2CH(CH3))zNH3^+][^−N(SO2CF3)2]3 where x+y+z˜5.3; JEFFAMINE™ T-403 DMI salt [Antistat 3]
[1]
  Surface Resistivity 1% MEK solution: 1.7 × 10^9 Ohm/cm^2
  Surface Resistivity 6% MEK: 1.1 × 10^9 Ohm/cm^2

## [(+)H3NCH(CH3)CH2[OCH(CH3)CH2]a[OCH2CH2]8.5[OCH2CH(CH3)]cNH3(+)][—N(SO2C4F9)2]2 (a+c=2.5); JEFFAMINE™ XJT-500 DBI salt [Antistat 1]
[1]
  Surface Resistivity 1% MEK solution: 8.5 × 10^9 Ohm/cm^2
  Surface Resistivity 6% MEK: 3.1 × 10^9 Ohm/cm^2

## [C12H25N^+(CH3)(CH2CH2O)mH(CH2CH2O)nH^−Cl] (m + n = 15) [ETHOQUAD ™ C/25]
[2]; 200° C.
  Wt. % remaining @ given Temp: 97.2 Wt. %
[2]; 240° C.
  Wt. % remaining @ given Temp: 89.4 Wt. %
[2]; 280° C.
  Wt. % remaining @ given Temp: 85.9 Wt. %
[2]; 320° C.
  Wt. % remaining @ given Temp: 81.8 Wt. %

## [C18H37N^+(CH3)(CH2CH2O)mH(CH2CH2O)nH^−Cl] (m + n = 15) [ETHOQUAD ™ 18/25]
[2]; 200° C.
  Wt. % remaining @ given Temp: 97.6 Wt. %
[2]; 240° C.
  Wt. % remaining @ given Temp: 90.8 Wt. %
[2]; 280° C.
  Wt. % remaining @ given Temp: 85.5 Wt. %
[2]; 320° C.
  Wt. % remaining @ given Temp: 82.0 Wt. %

## O=S(=O)([O-])C(F)(F)C(F)(F)C(F)(F)C(F)(F)C(F)(F)C(F)(F)C(F)(F)C(F)(F)F.[K+] [Antistat C8F17SO3K, Potassium perfluorooctanesulfonate]
[4]; 10 ppm in water
  surface energy: 67.68 dyne/cm
[4]; 100 ppm in water
  surface energy: 54.09 dyne/cm
[4]; 1000 ppm in water
  surface energy: 33.17 dyne/cm
[3]
  Amount of Sulfonate, Day 1N: 419 ppm
  Amount of Sulfonate, Day 1: 419 ± 86 ppm
  Amount of Sulfonate, Day 14N: 309 ppm
  Amount of Sulfonate, Day 14: 309 + 34 ppm
  Amount of Sulfonate, Day 28N: 237 ppm
  Amount of Sulfonate, Day 28: 237 ± 25 ppm

## [(+)H3NCH(CH3)CH2[OCH(CH3)CH2]a[OCH2CH2]8.5[OCH2CH(CH3)]CNH3(+)][—N(SO2CF3)2]2 (a+c=2.5); JEFFAMINE™ XJT-500 [^—N(SO2CF3)2]salt [Antistat 7]
[1]
  Surface Resistivity 1% MEK solution: 1.2 × 10^9 Ohm/cm^2
  Surface Resistivity 6% MEK: 3.7 × 10^8 Ohm/cm^2

## [CH3(OCH2CH2)19(OCH2CHCH3)2NH3^+][^−N(SO2CF3)2] [Antistat 6]
[1]
  Surface Resistivity 1% MEK solution: 1.6 × 10^9 Ohm/cm^2
  Surface Resistivity 6% MEK: 7.8 × 10^9 Ohm/cm^2

## O=S(=O)([N-]S(=O)(=O)C(F)(F)C(F)(F)C(F)(F)C(F)(F)F)C(F)(F)C(F)(F)C(F)(F)C(F)(F)F.[K+] [C4F9SO2NKSO2C4F9, potassium bis(perfluorobutanesulfonyl)imide]
[4]; 10 ppm in water
  surface energy: 61.85 dyne/cm
[4]; 100 ppm in water
  surface energy: 41.61 dyne/cm
[4]; 1000 ppm in water
  surface energy: 34.02 dyne/cm
